Values after ≈ are worked out from the molar mass of the structure shown. Values joined by “and” are separate entries in the source; they are usually repeats but may differ in a detail not shown here. Identical values can stand only once.
Key:
[1] = tested on: K. pneumoniae ATCC 700603; test: MIC/MBC broth microdilution, K. pneumoniae; type: cell-based
Procedure, shortened: (§1)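 Bacteria inoculated at about 10^5 CFU/mL in BHI broth and incubated 18 h at 37 °C with serial dilutions of peptidomimetics, NCCLS microdilution format. MBC taken as lowest concentration leaving no more than 3 colonies (≥99.9% kill); MIC as lowest concentration without obvious growth (≥90% of untreated); solvent controls included.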

[2] = tested on: E. faecalis c.i.; test: MIC/MBC broth microdilution, E. faecalis; type: cell-based, Enterococcus faecalis
Procedure, shortened: as §1

[3] = tested on: human dermal fibroblast cell line (46BR.1N); test: XTT cell proliferation assay, fibroblasts; type: cell-based; conditions: XTT
Procedure, shortened: (§2)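 Proliferation was read as XTT absorbance at 490 nm after 4 h of reagent incubation, following 48 or 72 h of peptide exposure in serum-free HG-DMEM (37 °C, 5% CO2). The 72 h arm included a half-medium change with second peptide dose at 48 h. Significance by Mann–Whitney U, p ≤ 0.05.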

[4] = tested on: S. aureus ATCC 43300; test: MIC/MBC broth microdilution, S. aureus; type: cell-based, Staphylococcus aureus; conditions: for MBC / MIC: S. aureus
[5] = tested on: P. vulgaris ATCC 6896; test: MIC/MBC broth microdilution, P. vulgaris; type: cell-based, Proteus vulgaris
Procedure, shortened: as §1

[6] = tested on: fibroblasts (46BR.1N); test: LDH cytotoxicity test, fibroblasts; type: cell-based; conditions: 48 h, 50-150 μg/mL
Procedure, shortened: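 Cytotoxicity as LDH release after 48 h serum-free treatment (50, 100, 150 μg/mL peptidomimetics) of 46BR.1N fibroblasts or HaCaT keratinocytes seeded at 5000 per well. Absorbance 450 nm; untreated set as 0% and Triton X-100 1% as maximal release; Mann–Whitney U test, p ≤ 0.05.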

[7] = tested on: immortalized human HaCaT keratinocytes; test: XTT cell proliferation assay, keratinocytes; type: cell-based; conditions: XTT
Procedure, shortened: as §2

[8] = Hydrophobicity by reverse-phase chromatography; type: physicochemical; conditions: acetonitrile content in the mobile phase at the retention time
Source text: Reverse-phase chromatography was employed to assess the hydrophobicity characteristics of the peptidomimetics. Hydrophobicity was quantified by determining the acetonitrile content in the mobile phase at the retention time of a peptidyl derivative (Table S2). The least hydrophobic compound (40% acetonitrile) was A-198, which aligns with the calculations of hydrophobicity by SwissADME and pkCSM (Table ). Next in the hydrophobicity sequence were A-197, A-220, A-219, A-174, and A-221, eluting with 42.5-43.9% of acetonitrile. Then there were followed by […], and A-179, with the acetonitrile percentage of 44.8-49.8. The compounds A-176, A-20, A-152, A-134, and A-210 needed over 50% of acetonitrile to be eluted from the column.

[9] = tested on: S. mutans c.i.; test: MIC/MBC broth microdilution, S. mutans; type: cell-based, Streptococcus mutans
Procedure, shortened: as §1

[10] = tested on: S. pyogenes ATCC 19615; test: MIC/MBC broth microdilution, S. pyogenes; type: cell-based, Streptococcus pyogenes; conditions: S. pyogenes
Procedure, shortened: as §1

[11] = tested on: S. schleiferi c.i.; test: MIC/MBC broth microdilution, S. schleiferi; type: cell-based, Staphylococcus schleiferi
Procedure, shortened: as §1

[12] = tested on: S. intemrdius c.i.; test: MIC/MBC broth microdilution, S. intermedius; type: cell-based, Staphylococcus intermedius
Method: S. aureus (ATCC 29213),S. pyogenes (ATCC 19615),Streptococcus agalactiae (ATCC 27956),Escherichia coli (ATCC 25922),Proteus vulgaris (ATCC 6896),K. pneumoniae (ATCC 700603) andP. aeruginosa (ATCC 10145) reference strains, as well asStaphylococcus cohnii, Enterococcus faecalis, Staphylococcus schleiferi, Staphylococcus intermedius and Streptococcus mutans clinical isolates, were used to test the antibacterial activity of the peptidomimetics. Bacteria were aerobically cultured for 18 h at 37 °C in plates with sterilized brain heart infusion (BHI) broth (Sigma-Aldrich, USA) media mixed with bacteriological agar (Sigma-Aldrich, USA) using the streak plate method. After 18 h, BHI broth was inoculated to 0.5 on the McFarland scale and diluted to approximately 10^5 CFU/mL. To achieve a final stock concentration of 1024 μg/mL, the peptidomimetics were dissolved in sterile water, and 5–10% of absolute ethanol or dimethyl sulfoxide (DMSO) was added. The antibacterial activities were determined by using the standard broth microdilution method of the National Committee for Clinical Laboratory Standards. The process involved adding serially diluted peptidomimetics to consecutive wells of a 96-well microtiter plate (Brand, Germany) holding media with microorganisms. The inoculated plates treated with peptides were then placed in an incubator at 37 °C for 18 h. The MIC value was determined as the lowest concentration of peptidomimetic at which there was no obvious growth (equal or more than 90% of the untreated sample). […] The lowest concentration yielding growth in no more than 3 colonies, corresponding to at least a 99.9% kill rate, was taken as MBC. Each biological replicate included control wells with the addition of water, DMSO, and ethanol as respective solvent controls. All experiments were conducted with consistent adherence to growth and sterility controls and were performed at least in technical triplicate with three biological repeats.

[13] = tested on: P. aeruginosa ATCC 10145; test: MIC/MBC broth microdilution, P. aeruginosa; type: cell-based
Procedure, shortened: as §1

[14] = tested on: E. coli ATCC 25922; test: MIC/MBC broth microdilution, E. coli; type: cell-based, Escherichia coli
Procedure, shortened: as §1

## CC(C)[C@@H](CNC(=O)C(=Cc1ccccc1)c1ccccc1)NC(=O)[C@H](CCCNC(=N)N)NC(=O)[C@H](CCCCN)NC(=O)OCc1ccccc1 [Compound A-191]
[1]; H2O
  MIC: > 512 µg/mL
[1]; water additive DMSO
  MIC: > 512 µg/mL
[1]; water additive EtOH
  MBC: > 512 µg/mL
  MIC: 512 µg/mL (≈ 704 µM)
[2]; H2O
  MBC: > 512 µg/mL
  MIC: 512 µg/mL (≈ 704 µM)
[2]; water additive DMSO
  MBC: > 512 µg/mL
  MIC: 512 µg/mL (≈ 704 µM)
[2]; water additive EtOH
  MIC: > 512 µg/mL
[3]
  proliferation relative to control at 100 and 150 μg/mL: ≤ 20%
[3]; 48 and 72 h, 0.01–150 μg/mL
  effect on proliferation, in words: negative impact
[4]; H2O
  MBC: 32 µg/mL (≈ 44 µM)
  MIC: 32 µg/mL (≈ 44 µM)
[4]; water additive DMSO
  MBC: 32 µg/mL (≈ 44 µM)
  MIC: 16 µg/mL (≈ 22 µM)
[4]; water additive EtOH
  MBC: 32 µg/mL (≈ 44 µM)
  MIC: 16 µg/mL (≈ 22 µM)
[4]; additive not stated
  MIC value for S. aureus: 16 µg/mL
[5]; H2O
  MBC: > 512 µg/mL
  MIC: 512 µg/mL (≈ 704 µM)
[5]; water additive DMSO
  MIC: > 512 µg/mL
[5]; water additive EtOH
  MBC: > 512 µg/mL
  MIC: 512 µg/mL (≈ 704 µM)
[6]
  cytotoxicity (LDH), in words: high cytotoxic effect only to fibroblasts at the highest tested concentration
[7]
  proliferation relative to control at 100 and 150 μg/mL: ≤ 20%
[7]; 48 and 72 h, 0.01–150 μg/mL
  effect on proliferation, in words: negative impact
[8]
  % AcCN (acetonitrile required for elution from the column): 44.8% and 44.8–49.8%
[9]; water additive DMSO
  MIC: 32 µg/mL (≈ 44 µM)
[9]; water additive EtOH
  MIC: 32 µg/mL (≈ 44 µM)
[10]; H2O
  MBC: 4 µg/mL (≈ 5.5 µM)
  MIC: 4 µg/mL (≈ 5.5 µM)
[10]; water additive DMSO
  MBC: 8 µg/mL (≈ 11 µM)
  MIC: 4 µg/mL (≈ 5.5 µM)
[10]; water additive EtOH
  MBC: 8 µg/mL (≈ 11 µM)
  MIC: 4 µg/mL (≈ 5.5 µM)
[11]; H2O
  MBC: 32 µg/mL (≈ 44 µM)
  MIC: 8 µg/mL (≈ 11 µM)
[11]; water additive DMSO
  MBC: 32 µg/mL (≈ 44 µM)
  MIC: 8 µg/mL (≈ 11 µM)
[11]; water additive EtOH
  MBC: 32 µg/mL (≈ 44 µM)
  MIC: 8 µg/mL (≈ 11 µM)
[12]; H2O
  MIC: 32 µg/mL (≈ 44 µM)
[12]; water additive DMSO
  MIC: 32 µg/mL (≈ 44 µM)
[12]; water additive EtOH
  MIC: 32 µg/mL (≈ 44 µM)
[13]; H2O
  MBC: 256 µg/mL (≈ 352 µM)
[13]; water additive DMSO
  MBC: 256 µg/mL (≈ 352 µM)
[14]; H2O
  MBC: > 512 µg/mL
  MIC: 512 µg/mL (≈ 704 µM)
[14]; water additive DMSO
  MBC: > 512 µg/mL
  MIC: 512 µg/mL (≈ 704 µM)
[14]; water additive EtOH
  MBC: > 512 µg/mL
  MIC: 512 µg/mL (≈ 704 µM)

Reference: publication PMC12332667, “Role of Structural Modifications in Peptidomimetic Compounds as Potential Antimicrobial Agents against Staphylococcus aureus and Streptococcus pyogenes: Balancing Bioavailability, Safety, and Antimicrobial Activity” (ACS Omega, 2025)
